Kd and IC50 data for 5 molecules are collected here from PMC12751012, “Nanoscale Direct-to-Biology Optimization and Structural Insights into Selective S. aureus TrmD Inhibitors” (Journal of Medicinal Chemistry, 2025).

Where two headings read alike, the source gives them in different places.

One test addresses T1, E. coli TrmD (Escherichia coli, UniProt P0A873).
T1 construct: made in house; host or cells: E. coli (the strain received with the pCA24N plasmid)
Put plainly: Fluorescence polarization (FP) assay, tracer 3 (Cy5TPD), E. coli TrmD. In kind it is binding. As for the experimental part:
Fluorescence polarization (FP) assays were performed as follows. The assays for H. influenzae TrmD have been described previously. All assays were conducted in technical triplicate using black 96-well half area plates. For the FP assays, a tracer (20 nM Cy5TPD for E. coli and H. influenzae TrmD, 10 nM tracer 4 for S. aureus TrmD) was mixed with the respective enzyme (2 μM E. coli TrmD, 2 μM H. influenzae TrmD, 500 nM S. aureus TrmD) in buffer (E. coli and H. influenzae TrmD: 50 mM HEPES, 500 mM NaCl, 5% Glycerol, pH 7.5, S. aureus TrmD: 40 mM Tris HCl, 100 mM NaCl, 10 mM MgCl2, 5% Glycerol, pH 7.5). The compounds were added in varying concentrations for K D-value determination. For K D-value determination of tracers, the enzyme concentration was varied, and no inhibitory compounds were added (DMSO < 0.5% for TrmDs). The Z-factor for tracer 4 was determined by measuring 48 replicates of the free tracer (positive controls, PC) and 48 replicates of a mixture of enzyme and tracer (negative controls, NC). The Z-factor is defined in terms of the means (μ) and standard deviations (σ) of the positive and negative controls and calculated as Z = 1–(3*(σnc + σpc)/(μnc–μpc)). Fluorescence polarization was measured using a Spark 10 M plate reader (Tecan) equipped with polarization filters and a monochromator setup (λex = 635 nm, λem = 680 nm). Polarization values (mP) were determined from polarization-specific parallel and orthogonal fluorescence intensities. K D-values were calculated in GraphPad Prism 8.0.1 using the four-parameter Hill equation: y(% tracer bound) = bottom + ([ligand]-slope) × (top–bottom)/([ligand]-slope + K Dslope).

The target of another test is T2, S. aureus TrmD (Staphylococcus aureus, UniProt Q2FZ43).
T2 construct: made in house; host or cells: E. coli BL21
T2 sequence (Q2FZ43 1-245): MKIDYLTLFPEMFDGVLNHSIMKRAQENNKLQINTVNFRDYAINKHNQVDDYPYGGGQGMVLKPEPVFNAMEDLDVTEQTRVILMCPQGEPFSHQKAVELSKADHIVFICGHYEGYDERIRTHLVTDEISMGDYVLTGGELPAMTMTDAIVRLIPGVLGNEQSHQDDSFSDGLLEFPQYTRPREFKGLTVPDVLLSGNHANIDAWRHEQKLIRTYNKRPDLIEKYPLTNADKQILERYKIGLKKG
Briefly: Aptamer-based MTase enzyme inhibition assay. It counts as biochemical. The method, then:
For the determination of S. aureus TrmD IC50-values, a split aptamer assay according to Nidoieva et al. was employed. The assay was performed in 40 mM Tris HCl, 100 mM NaCl, 10 mM MgCl2, 5% Glycerol, pH 7.5. Enzyme reaction mixtures contained synthetic tRNA^LeuCAG substrate (synthetic tRNA^Leu: 5′-[…]-3′, Genscript, final concentration: 2 μM), S. aureus TrmD (final concentration: 100 nM), SAM (New England Biolabs, final concentration: 2 μM), and the test compounds in varying concentrations (3% DMSO, final volume 10 μL). Pure DMSO was used as a mock treatment reaction control. The assay was carried out in triplicate in black 384-well plates (Greiner). Enzyme reactions were quenched by the addition of 1 μL SDS (3%) after an incubation time of 60 min at room temperature.

Where [1] appears, read: aptamer-based enzyme assay, read-out: IC50 S. aureus TrmD.

T1 sequence (P0A873 whole entry): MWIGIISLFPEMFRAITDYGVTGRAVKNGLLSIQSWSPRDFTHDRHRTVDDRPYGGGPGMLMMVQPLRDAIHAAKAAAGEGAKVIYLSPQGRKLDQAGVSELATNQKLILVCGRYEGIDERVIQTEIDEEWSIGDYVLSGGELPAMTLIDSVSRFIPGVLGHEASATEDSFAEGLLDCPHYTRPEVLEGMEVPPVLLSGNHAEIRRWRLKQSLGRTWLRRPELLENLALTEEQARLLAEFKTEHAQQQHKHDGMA

Turning to `O=c1[nH]cnc2[nH]cc(-c3cn(CC4CCC5C(CC4)C5(F)F)nn3)c12` (stereo not shown) [Compound 8c, 5-(1-((8,8-Difluorobicyclo[5.1.0]octan-4-yl)methyl)-1H-1,2,3-triazol-4-yl)-3,7-dihydro-4H-pyrrolo[2,3-d]pyrimidin-4-one], on E. coli TrmD, the dissociation constant Kd (in general, the constant that tells how readily two partners part at equilibrium) was greater than 30 µM. Moreover, at S. aureus TrmD (setting [1]), the 50% inhibitory concentration (IC50) (in general, the concentration needed to halve the response being measured) worked out at 710 ± 100 nM.

Molecule `N#Cc1cccc(Cn2cc(-c3c[nH]c4nc[nH]c(=O)c34)nn2)c1` [Compound 8b, 3-((4-(4-Oxo-4,7-dihydro-3H-pyrrolo[2,3-d]pyrimidin-5-yl)-1H-1,2,3-triazol-1-yl)methyl)benzonitrile] came in with an equilibrium dissociation constant (Kd) at E. coli TrmD greater than 30 µM. In addition, on S. aureus TrmD (setting [1]), the IC50 came out at 3220 ± 1800 nM.

In turn, `O=c1[nH]cnc2[nH]cc(-c3cn(Cc4ccc5ncccc5c4)nn3)c12` [Compound 8d, 5-(1-(Quinolin-6-ylmethyl)-1H-1,2,3-triazol-4-yl)-3,7-dihydro-4H-pyrrolo[2,3-d]pyrimidin-4-one] had an equilibrium dissociation constant (Kd) at E. coli TrmD greater than 30 µM. Also, the half-inhibitory concentration (IC50) on S. aureus TrmD (setting [1]) stood at 390 ± 70 nM.

As for `N[C@@H]1CCC[C@@H]1Cn1cc(-c2c[nH]c3nc[nH]c(=O)c23)nn1` [Compound 8e, 5-(1-(((1R,2R)-2-Aminocyclopentyl)methyl)-1H-1,2,3-triazol-4-yl)-3,7-dihydro-4H-pyrrolo[2,3-d]pyrimidin-4-one], the Kd on E. coli TrmD is greater than 30 µM. Moreover, the concentration for half-maximal inhibition (IC50) at S. aureus TrmD (setting [1]) was determined as 480 ± 60 nM.

For `NC(N)=NCCn1cc(-c2c[nH]c3nc[nH]c(=O)c23)nn1` [Compound 8h], on E. coli TrmD, the Kd was greater than 30 µM. Moreover, the half-maximal inhibitory concentration (IC50) against S. aureus TrmD turned out to be 1160 ± 120 nM.
